Reference: patent US20260285835A1, “SOLID FORM OF PYRROLIDONE DERIVATIVE AS GLUCOKINASE ACTIVATOR” (priority 2023, published 2026)
Where two headings read alike, the source gives them in different places.

Tests used:
[1] = Stability test in simulated gastric fluid (SGF); format: in vitro ADME; settings: 37° C.
Procedure: 0.04 g of NaCl and 0.064 g of pepsin were dissolved in 0.14 mL of HCl, and water was added to bring the total volume to 20 mL. The pH of the test solution was about 1.20±0.05.
Then 200 μL of supernatant was pipetted and mixed completely again with 400 μL of cold acetonitrile containing 200 ng/mL tolbutamide (internal standard). 7) All samples were centrifuged at 4000 rpm, 4° C. for 20 min. • 8) 60 μL of supernatant was pipetted and mixed completely with 180 μL of ultra-pure water, and the mixture was subjected to LC-MS/MS analysis.

[2] = Stability test in simulated intestinal fluid (SIF); format: in vitro ADME; settings: 37° C.
Procedure: 0.136 g of KH2PO4 and 0.2 g of pancreatin were dissolved in water to obtain a final volume of 20 mL. The pH of the test solution was about 6.80±0.05.
Then 200 μL of supernatant was pipetted and mixed completely again with 400 μL of cold acetonitrile containing 200 ng/mL tolbutamide (internal standard). • 7) All samples were centrifuged at 4000 rpm, 4° C. for 20 min. • 8) 60 μL of supernatant was pipetted and mixed completely with 180 μL of ultra-pure water, and the mixture was subjected to LC-MS/MS analysis.

[3] = Simulated metabolic test in human intestine S9; format: in vitro ADME
Procedure: 73.21 g of K2HPO4·3H2O (AR grade) and 10.78 g of KH2PO4 (AR grade) were dissolved in ultra-pure water to obtain a final volume of 4000 mL and a final concentration of 100 mM. The pH of the final test solution was adjusted to 7.40±0.10 with H3PO4/KOH.
An Apricot automation workstation was used to add 50 μL/well of HIS9 solution to the corresponding wells of all reaction plates (blank, T0, T5, T15, T30, T45, T60).
An Apricot automation workstation was used to add 48 μL/well of PB to the corresponding wells of every reaction plate (blank, T0, T5, T15, T30, T45, T60) to start the reaction.
The reaction plates were incubated at 37° C., and timer was started. An Apricot automation workstation was used to add 300 μL/well of stop solution (cold acetonitrile containing 200 ng/mL tolbutamide (internal standard)) to the corresponding wells of each reaction plate at the appropriate end time point to stop the reaction.
Each plate was sealed and shaken for 10 minutes. Each plate was centrifuged at 4000 rpm and 4° C. for 20 minutes. After centrifugation, 100 μL of supernatant was transferred from each reaction plate to the corresponding analysis plate, and mixed well with 300 μL of ultra-pure water.

[4] = Caco-2 bi-directional permeability test; format: in vitro ADME; settings: human; for metabolised at 2 h, 2 µM: Caco-2, pH 7.4, Compound A concentration 2.00 μM; for metabolised at 2 h, 10 µM: Caco-2, pH 7.4, Compound A concentration 10.0 μM; for metabolised at 2 h, 30 µM: Caco-2, pH 7.4, Compound A concentration 30.0 μM
Procedure: (§1) Caco-2 cell culture: Caco-2 cells (purchased from American Type Culture Collection, ATCC) were inoculated on polyethylene film (PET) of a 96-well culture plate at a concentration of 1×10^5 cells/cm^2. The culture medium was replaced every 4 days until cell confluency to form cell monolayer on day 21 or 28.
(§2) Transport test: Transport buffer used in the test was Hanks' Balanced Salt Solution (HBSS) containing 10 mM 2-[4-(2-hydroxyethyl)-1-piperazinyl]ethanesulfonic acid (HEPES) with a pH of 7.40±0.05. […] The final concentration of DMSO in the incubation system was adjusted to <1%.

[5] = system: Caco-2 cells; test: Caco-2 bi-directional permeability test; format: in vitro ADME
Procedure: as §1, §2

[6] = format: in vivo; settings: rats
Procedure: Each group was divided into 2 subgroups (intravenous bolus group (IV) and gavage group (PO)).
Whole blood samples (about 0.2 mL per time point) were collected at pre-dose (0), 0.083, 0.25, 0.5, 1, 2, 4, 8, 12, and 24 hours post-dose by jugular vein puncture. All the blood samples were immediately transferred into labeled pre-chilled commercial microcentrifuge tubes containing 4 μL of 0.5M K2-EDTA and 10 μL of cocktail stabilizer. Samples were placed on wet ice until centrifugation (within 30 min). Plasma samples were then prepared by centrifuging the blood samples at approximately 4° C., 3200×g for 10 minutes. Supernatant plasma was pipetted, then quickly frozen over dry ice, and then kept at −60° C. or lower temperature until LC-MS/MS analysis. The cocktail stabilizer was prepared according to the following Table 8:
The plasma concentrations were subjected to a non-compartmental pharmacokinetic analysis by using the WinNonlin™ software program (version 6.3).

[7] = system: C57BL/6J mice; test: Pharmacodynamic study: OGTT blood glucose and insulin level in C57BL/6J mice; format: in vivo; settings: for Blood glucose level at 0 min (pre-glucose) vs vehicle control group: each administration group, 1 hour after administration, dose-response relationship
Procedure: There were 7 groups of mice, with 8 mice in each group. […] Oral glucose tolerance test (OGTT) was performed 1 hour after administration. The blood glucose level in mice was tested before administration (−60 min), before sugar administration (0 min), and at 15 min, 30 min, 60 min, and 120 min after sugar administration. In addition, 40 μl of blood was collected from the tail tip before sugar administration (0 min) and at 15 min after sugar administration to collect the plasma for an insulin level test.
All data was transferred into an Excel document. The blood glucose results were expressed in mg/dL and expressed as MEAN±SEM. Differences between multiple groups were analyzed using Dunnett's method in one-way analysis of variance (ANOVA) or two-way analysis of variance (ANOVA) with Graphpad Prism 8 software for comparison, and the differences were considered statistically significant when the P value was less than 0.05.

[8] = format: physicochemical; settings: room temperature
[9] = Dynamic vapour sorption (DVS) test; format: physicochemical; settings: 25° C.
Procedure: A dynamic vapour sorption (DVS) test was conducted on crystal form A of the free state and crystal form B of the hydrochloride.
A certain amount of powder was taken and put into a sample pan, and hygroscopicity of the sample was evaluated with DVS according to the following instrument method: […]

[10] = Forced degradation stability test (heat, humidity and heat, light); format: physicochemical; settings: light box 10 days
Procedure: About 10 mg of the sample powder was weighed and placed in a transparent vial, an amber vial, and a transparent vial sealed with aluminum foil, respectively. Those vials were placed in a light box for 10 days, with a total illumination of 1.2×10^6 Lux·hr and a near-UV energy not less than 200w·hr/m^2, for photostability evaluation.
The samples were taken at each time point for HPLC and XRPD analysis to evaluate the chemical and physical stability.

[11] = High-temperature stability (60° C.) of free state crystal form A; format: physicochemical
Source text: (§3) The resulting sample was sampled at day 6, day 14 and day 34 for HPLC analysis.

[12] = High-humidity stability (90% RH) of free state crystal form A; format: physicochemical
Source text: as §3

[13] = Photostability (direct sunlight) of free state crystal form A; format: physicochemical
Source text: The resulting sample was sampled at day 4 and day 15 for HPLC analysis.

[14] = read-out: Average conversion rate to parent drug HMS5552 (%) A→B
[15] = read-out: Average conversion rate to parent drug HMS5552 (%) B→A
[16] = Compound A concentration 2.00 μM
[17] = Compound A concentration 10.0 μM, 120 min
[18] = Compound A concentration 30.0 μM, 120 min

CC(C)C[C@@H](C(=O)Nc1ccn(C[C@@H](O)COC(=O)c2cccnc2)n1)N1CC(Oc2ccccc2Cl)=CC1=O [Compound A, (R)-3-(3-((S)-2-(4-(2-chlorophenoxy)-2-oxo-2,5-dihydro-1H-pyrrol-1-yl)-4-methylpentanamido)-1H-pyrazol-1-yl)-2-hydroxypropyl nicotinate]
Parent drug HMS5552 (%) ([1]; generation in SGF, 2 μM, 0 hr): 0.92%
metabolised at 1 h, 2 µM ([1]; simulated gastric fluid, pH 1.2, generation in SGF, 1 hr, read-out: Parent drug HMS5552 (%)): 0.86%
metabolised at 2 h, 2 µM ([1]; simulated gastric fluid, pH 1.2, generation in SGF, 2 hr, read-out: Parent drug HMS5552 (%)): 0.87%
metabolised at 6 h, 2 µM ([1]; simulated gastric fluid, pH 1.2, generation in SGF, 6 hr, read-out: Parent drug HMS5552 (%)): 1.02%
metabolised at 24 h, 2 µM ([1]; simulated gastric fluid, pH 1.2, generation in SGF, 24 hr, read-out: Parent drug HMS5552 (%)): 1.63%
Parent drug HMS5552 (%) ([2]; generation in SIF, 2 μM, 0 hr): 0.86%
metabolised at 1 h, 2 µM ([2]; simulated intestinal fluid, pH 6.8, generation in SIF, 1 hr, read-out: Parent drug HMS5552 (%)): 35.6%
metabolised at 2 h, 2 µM ([2]; simulated intestinal fluid, pH 6.8, generation in SIF, 2 hr, read-out: Parent drug HMS5552 (%)): 46.6%
metabolised at 6 h, 2 µM ([2]; simulated intestinal fluid, pH 6.8, generation in SIF, 6 hr, read-out: Parent drug HMS5552 (%)): 72.8%
metabolised at 24 h, 2 µM ([2]; simulated intestinal fluid, pH 6.8, generation in SIF, 24 hr, read-out: Parent drug HMS5552 (%)): 73.4%
Parent drug HMS5552 (%) ([3]; HIS9 0.5 mg/mL, 37° C., 0 min): 1.1%
Time to complete metabolism and conversion into parent drug HMS5552 ([3]; human intestine S9): ≤ 5 min
metabolised at 5 min ([3]; human, s9, pH 7.4, HIS9 0.5 mg/mL, 37° C., 5 min, read-out: Parent drug HMS5552 (%)): 80%
metabolised at 0.25 h ([3]; human, s9, pH 7.4, HIS9 0.5 mg/mL, 37° C., 15 min, read-out: Parent drug HMS5552 (%)): 77.2%
metabolised at 0.5 h ([3]; human, s9, pH 7.4, HIS9 0.5 mg/mL, 37° C., 30 min, read-out: Parent drug HMS5552 (%)): 79.8%
metabolised at 0.75 h ([3]; human, s9, pH 7.4, HIS9 0.5 mg/mL, 37° C., 45 min, read-out: Parent drug HMS5552 (%)): 81.2%
metabolised at 1 h ([3]; human, s9, pH 7.4, HIS9 0.5 mg/mL, 37° C., 60 min, read-out: Parent drug HMS5552 (%)): 90.5%
metabolised at 2 h, 2 µM [4, 14]: 26.5%
metabolised at 2 h, 2 µM [4, 15]: 5.8%
metabolised at 2 h, 10 µM [4, 14]: 37.4%
metabolised at 2 h, 10 µM [4, 15]: 5.6%
metabolised at 2 h, 30 µM [4, 14]: 26.8%
metabolised at 2 h, 30 µM [4, 15]: 3.4%
Average recovery rate (%) A→B [5, 16]: 52.9%
Average recovery rate (%) B→A [5, 16]: 87.1%
The average apparent permeability Papp A→B [5, 16]: 0.02977 10^−6 cm/s
Average recovery rate (%) A→B [5, 17]: 37.5%
Average recovery rate (%) B→A [5, 17]: 81.6%
The average apparent permeability Papp A→B [5, 17]: 0.03187 10^−6 cm/s
Average recovery rate (%) B→A [5, 18]: 82.2%
The average apparent permeability Papp A→B [5, 18]: 0.04322 10^−6 cm/s
Metabolism after intravenous injection (in words) [6]: metabolized very rapidly
Insulin level at 15 min vs corresponding dose group of HMS5552 ([7]; oral 18.4 mg/kg): significantly higher than that of the corresponding dose group of HMS5552
Insulin level at 15 min vs vehicle control group ([7]; oral 18.4 mg/kg): significantly higher than that of the vehicle control group
Insulin level at 15 min vs vehicle control group ([7]; oral 49.1 mg/kg): significantly higher than that of the vehicle control group
OGTT blood glucose values vs vehicle control group ([7]; oral 49.1 mg/kg, at 15 min, 30 min, 60 min and 120 min after glucose): significantly lower than that of the vehicle control group
OGTT blood glucose values vs HMS5552-40 mg/kg group ([7]; oral 49.1 mg/kg, at 30 min, 60 min and 120 min after glucose): significantly lower than that of the HMS5552-40 mg/kg group
Blood glucose level at 0 min (pre-glucose) vs vehicle control group ([7]; oral): generally lower than that of the vehicle control group
Insulin level at 0 min vs vehicle control group and HMS5552 high-dose group ([7]; oral, high-dose group): significantly higher than that of the vehicle control group and the HMS5552 high-dose group
OGTT AUC0-120min vs corresponding dose groups of HMS5552 ([7]; oral, medium and high dose groups): significantly lower than those of the corresponding dose groups of HMS5552

CC(C)C[C@@H](C(=O)Nc1ccn(C[C@@H](O)CO)n1)N1CC(Oc2ccccc2Cl)=CC1=O [HMS5552, (S)-2-(4-(2-chlorophenoxy)-2-oxo-2,5-dihydro-1H-pyrrol-1-yl)-N-(1-((R)-2,3-dihydroxypropyl)-1H-pyrazol-3-yl)-4-methylpentanamide, reference compound]
OGTT blood glucose values vs vehicle control group ([7]; oral 40 mg/kg, at 30 min, 60 min and 120 min after glucose): significantly lower than that of the vehicle control group
Blood glucose level at 0 min (pre-glucose) vs vehicle control group ([7]; oral): generally lower than that of the vehicle control group
Insulin levels at 0 min and 15 min vs vehicle control group ([7]; oral, each dose group): slightly higher than those in the vehicle control group, without significant difference

CC(C)C[C@@H](C(=O)Nc1ccn(C[C@@H](O)COC(=O)c2cccnc2)n1)N1CC(Oc2ccccc2Cl)=CC1=O [crystal form A of the free state, (R)-3-(3-((S)-2-(4-(2-chlorophenoxy)-2-oxo-2,5-dihydro-1H-pyrrol-1-yl)-4-methylpentanamido)-1H-pyrazol-1-yl)-2-hydroxypropyl nicotinate]
Solubility (mg/mL) ([8]; DMAc): S>40.0 mg/mL
Solubility (mg/mL) ([8]; DMSO): S>42.0 mg/mL
Solubility (mg/mL) ([8]; MeOH): S>42.0 mg/mL
Solubility (mg/mL) ([8]; NMP): S>40.0 mg/mL
Solubility (mg/mL) ([8]; n-Heptane): S<1.1 mg/mL
Moisture-induced weight gain ([9]; relative humidity of 95%): less than 0.7%
Moisture-induced weight gain ([9]; relative humidity of less than or equal to 90%): less than 0.5%
Crystalline form after forced degradation (XRPD) ([10]; 50° C., 80° C., 40° C./75% RH (unsealed), 1 day, 2 weeks, 4 weeks): does not change
Effect of light on stability ([10]; […]10^6 Lux·hr, near-UV not less than 200w·hr/m^2): no effect on the stability
Purity (Area %) ([11]; 0 h): 98.17 Area %
High-temperature stability (HPLC), conclusion ([11]; 60° C. oven without cover): still stable after being placed at 60 °C for 14 days
Purity (Area %) ([11]; 60° C., Day 6, without cover): 99.03 Area %
Purity (Area %) ([11]; 60° C., Day 14, without cover): 99.11 Area %
Purity (Area %) ([12]; 0 hour): 98.17 Area %
High-humidity stability (HPLC), conclusion ([12]; 90% RH without cover): still stable after being placed under the condition of 90% relative humidity for 14 days
Purity (Area %) ([12]; 90% RH, Day 6, without cover): 98.99 Area %
Purity (Area %) ([12]; 90% RH, Day 14, without cover): 99.09 Area %
Purity (Area %) ([13]; 0 hour): 98.17 Area %
Photostability (HPLC), conclusion ([13]; direct sunlight): still stable after being placed under sunlight for 15 days
Purity (Area %) ([13]; direct sunlight, Day 4): 99.07 Area %
Purity (Area %) ([13]; direct sunlight, Day 15): 99.10 Area %
